Experimental data published in PMC9150102 (Journal of Medicinal Chemistry, 2022).

Key:
[1] = test system: Na^+/K^+ ATPase current (INaK); experiment: Na+/K+ ATPase current (INaK) in isolated rat LV myocytes; type: cell-based; details: isolated rat cardiomyocytes
[2] = test system: STZ diabetic rats; experiment: Echocardiography (hemodynamics) in STZ diabetic rats during i.v. infusion; type: in vivo, rat
Experimental: Drug effects reached a plateau at 15 min of infusion; 10 min after discontinuation of the infusion, most echo indexes affected by the compound returned to the basal level.
Echocardiographic parameters were measured before (basal) and at 15 and 30 min during drug infusion and 10 min after drug interruption under urethane anesthesia. Data are the mean ± SEM; all the results of echocardiographic indexes are summarized in Table S2; N = 13; *p < 0.05 (one-way RM ANOVA).
Diabetes was induced in Sprague Dawley male rats (150–175 g) by a single i.v. STZ group (50 mg/kg in citrate buffer) injection in the tail vein. Control (healthy group) rats received vehicle (citrate buffer).
Rats were studied by transthoracic echocardiographic under anesthesia (1.25 g/kg urethane, i.p). Left-ventricular end-diastolic (LVEDD) and end-systolic (LVESD) diameter, posterior wall (PWT), and interventricular septal thickness (IVST) were measured according to the American Society of Echocardiography guidelines.[16] FS was calculated as FS = (LVEDD – LVESD)/LVEDD. Trans-mitral flow velocity was measured (pulsed Doppler) to obtain early and late filling velocities (E and A waves) and E wave deceleration time (DT). […]
Hemodynamic studies in rats with diabetic cardiomyopathy
Control (healthy group) rats received STZ vehicle (citrate buffer). […]
were considered diabetic9.
Two-dimensionally guided M-mode recordings were […]
the American Society of Echocardiography guidelines13. Fractional shortening was calculated as FS = […]
E wave deceleration time (DT). […]
jugular vein for drug infusion in rats. Rats were randomly submitted to an echocardiographic study […]
intravenous infusion at the dose of 0.2 mg/kg/min. Echo parameters were measured at 15 and 30 min after infusion start and 10 min after drug interruption under urethane anesthesia. Data are mean ± SEM. *p<0.05 vs basal (one-way ANOVA for repeated measurements). […]
basal after 15 min after 30 min after 10 min

[3] = i.v. infusion 0.2 mg/kg/min, after 15 min
[4] = i.v. infusion 0.2 mg/kg/min, after 30 min

C[C@]12CC[C@H](CCCC(=O)O)C[C@@H]1[C@@H](O)C[C@@H]1[C@@H]2CC[C@]2(C)C(=O)CC[C@@H]12 [Compound 5]
concentration above which INaK inhibition is detectable [1]: higher than 20 μM | CO ([2]; 10 min after drug interruption): 153,2±10,67 ml/min | DT ([2]; 10 min after drug interruption): 52,4±4,36 ms | DT/E ([2]; 10 min after drug interruption): 68,2±6,13 s2/mm | E/A ([2]; 10 min after drug interruption): 1,37±0,06 | E/DT ([2]; 10 min after drug interruption): 16,5±1,78 m/s2 | E/e' ([2]; 10 min after drug interruption): 40,22±0,82 | EF ([2]; 10 min after drug interruption): 92,66±1,05% | FS ([2]; 10 min after drug interruption): 61,3±2,05% | HR ([2]; 10 min after drug interruption): 228±10 bpm | IVSTd ([2]; 10 min after drug interruption): 1,68 ± 0,07 mm | IVSTs ([2]; 10 min after drug interruption): 2,55 ± 0,10 mm | LVEDD ([2]; 10 min after drug interruption): 6,84 ± 0,17 mm | LVESD ([2]; 10 min after drug interruption): 2,64 ± 0,17 mm | PWTd ([2]; 10 min after drug interruption): 1,17 ± 0,07 mm | PWTs ([2]; 10 min after drug interruption): 2,42 ± 0,10 mm | SV ([2]; 10 min after drug interruption): 0,68±0,05 ml | a' ([2]; 10 min after drug interruption): 26,22±1,31 mm/s | e' ([2]; 10 min after drug interruption): 19,4±0,60 mm/s | e'/a' ([2]; 10 min after drug interruption): 0,76±0,047 | s' ([2]; 10 min after drug interruption): 20,6±0,53 mm/s | CO [2, 3]: 177,2±11,27 ml/min | DT [2, 3]: 42,46±2,83 ms | DT/E [2, 3]: 49,52±3,44 s2/mm | E/A [2, 3]: 1,36±0,05 | E/DT [2, 3]: 21,49±1,61 m/s2 | E/e' [2, 3]: 37,49±1,2 | EF [2, 3]: 90,68±1,4% | FS [2, 3]: 58,1±2,38% | HR [2, 3]: 268±15 bpm | IVSTd [2, 3]: 1,81±0,08 mm | IVSTs [2, 3]: 2,34±0,10 mm | LVEDD [2, 3]: 6,86±0,17 mm | LVESD [2, 3]: 2,87±0,18 mm | PWTd [2, 3]: 1,16±0,07 mm | PWTs [2, 3]: 2,59±0,09 mm | SV [2, 3]: 0,68±0,05 ml | a' [2, 3]: 29,13±1,82 mm/s | e' [2, 3]: 23,33±0,73 mm/s | e'/a' [2, 3]: 0,84±0,07 | s' [2, 3]: 22,4±0,86 mm/s | CO [2, 4]: 175,15±9,4 ml/min | DT [2, 4]: 42,15±2,74 ms | DT/E [2, 4]: 48,51±4,56 s2/mm | E/A [2, 4]: 1,34±0,06 | E/DT [2, 4]: 23,18±2,32 m/s2 | E/e' [2, 4]: 37,45±1,24 | EF [2, 4]: 92,19±1,18% | FS [2, 4]: 60,7±2,31% | HR [2, 4]: 252±14 bpm | IVSTd [2, 4]: 1,71±0,1 mm | IVSTs [2, 4]: 2,55±0,13 mm | LVEDD [2, 4]: 6,94±0,15 mm | LVESD [2, 4]: 2,73±0,18 mm | PWTd [2, 4]: 1,22±0,07 mm | PWTs [2, 4]: 2,53±0,10 mm | SV [2, 4]: 0,71±0,04 ml | a' [2, 4]: 28,94±1,47 mm/s | e' [2, 4]: 24,24±0,65 mm/s | e'/a' [2, 4]: 0,86±0,05 | s' [2, 4]: 21,8±0,78 mm/s | systolic function ([2]; i.v. infusion at a single dose): did not affect systolic function significantly
